Data: US3985887A, “3-Substituted-4-hydroxyphenyl-2-piperidylcarbinols as β-adrenergic stimulants” (SmithKline Corporation, priority 1975, dated 1976)
Where a name gives a salt, the structure may show the parent alone.

Key:
[1] = test system: guinea pig tracheal chain preparation; experiment: effect on spontaneous tone of guinea pig tracheal chain preparation (β-stimulant direct relaxant effect on airway smooth muscle); assay type: cell-based; conditions: Cavia porcellus, in vitro, read-out: ED50, dose which produces 50% of the maximum possible relaxation
Experimental: (§1) The compounds of this invention are β-adrenergic stimulants which have direct bronchodilator activity with minimal cardiac stimulation. This selective β-stimulant activity is determined by two standard in vitro pharmacological test systems: (1) effect on spontaneous tone of guinea pig tracheal chain preparation as a measure of β-stimulant (direct relaxant) effect on airway smooth muscle, and (2) effect on spontaneously beating right atria of the guinea pig as a measure of β-stimulant effect on cardiac muscle. Compounds that show selective bronchodilating properties, as the compounds of this invention do, are active in test (1) at a dose lower than is required in test (2) thereby resulting in a positive separation ratio. Results of test (1) are reported as the dose which produces 50% of the maximum possible relaxation (ED50). Test (2) results are reported as the dose which produces 25% of the maximum possible increase in atrial contraction rate (ED25).

[2] = test system: spontaneously beating right atria of the guinea pig; experiment: effect on spontaneously beating right atria of the guinea pig (β-stimulant effect on cardiac muscle); assay type: cell-based; conditions: Cavia porcellus, in vitro, read-out: ED25, dose which produces 25% of the maximum possible increase in atrial contraction rate
Experimental: as §1

| EC50 [1] | SMILES | EC25 [2] |
| --- | --- | --- |
| 0.14 µg/mL | CS(=O)(=O)Cc1cc(C(O)C2CCCCN2)ccc1O (stereo not drawn) [α-(4-hydroxy-3-methanesulfonylmethylphenyl)-2-piperidylcarbinol hydrobromide] | 1.1 µg/mL |
| 0.83 µg/mL | NC(=O)Nc1cc(C(O)C2CCCCN2)ccc1O (stereo not drawn) [α-(4-hydroxy-3-ureidophenyl)-2-piperidylcarbinol hydrochloride] | 9.4 µg/mL |

| SMILES | EC50 [1] | EC25 [2] |
| --- | --- | --- |
| Nc1cc(C(O)C2CCCCN2)ccc1O (stereo not drawn) [α-(3-amino-4-hydroxyphenyl)-2-piperidylcarbinol hydrobromide] | 0.12 µg/mL | 4.4 µg/mL |
